Data: PMC7562719, “Discovery of a CNS penetrant small molecule SMN2 splicing modulator with improved tolerability for spinal muscular atrophy” (Scientific Reports, 2020)

Columns and labels:
Format in all cases: cell-based, human
FOXM1a = test: qPCR of FOXM1a variant in GM03813 fibroblasts; conditions: 24 h, 200% total target mRNA increase, 95% CI in brackets
Protocol: (§1) GM03813 fibroblasts, GM24468-derived MNs, NRK-49F, MDCK, CV-1, or NCMDF cells were plated at a density of 0.5 or 1.5 × 10^4, 4 × 10^4, 5 × 10^3, 5 × 10^3, 8 × 10^3, or 6 × 10^3 cells/well on 96-well plates, respectively. After approximately 6 h, the medium was added with the same volume of culture medium containing each compound at the concentration of 0.06, 0.2, 0.6, 0.2, and 6 µM. The final concentration of DMSO was adjusted to 0.1% in culture condition.
(§2) All cells were treated with above compounds for 24 h and washed once with Dulbecco’s Phosphate-Buffered Saline without Ca and Mg [D-PBS (–)] (Wako or Nakarai Tesque). In case of using GM03813 or GM24468-derived MNs, cell lysis and reverse transcription were carried out using SuperPrep Cell Lysis & RT Kit for qPCR in accordance with manufacturer’s recommendations (Toyobo, Japan). qPCR was performed using THUNDERBIRD Probe qPCR Mix (Toyobo). The final concentrations of primers and probes were adjusted to 0.4 µM and 0.15 µM, respectively (Supplementary Table 1). Cycle conditions were as follows; 95 °C for 1 min; followed by 40 cycles of denaturation at 95 °C for 15 s; annealing and elongation at 60 °C for 1 min in the ViiA7 RT-PCR system (Thermo Fisher Scientific). The copy numbers of each target were normalized to those of GAPDH.

FOXM1b = test: qPCR of FOXM1b/c variant in GM03813 fibroblasts; conditions: for Selectivity FOXM1b /FL-SMN2: EC50 of FOXM1b divided by EC1.5× of FL-SMN2; for EC50: Homo sapiens, Fibroblast, GM03813 fibroblasts, 24 h, 50% total target mRNA reduction, 95% CI in brackets
Protocol: as §1, §2

SMN2 splicing = test: qPCR of SMN transcripts in motor neurons derived from SMA patient iPSCs (GM24468); conditions: iPSC-derived motor neurons (GM24468), 24 h
Protocol: GM24468 cells were differentiated to motor neurons (MNs) via a motor neuron progenitor (MNP) as previously reported. Briefly described, GM24468 were treated with a chemically defined neural medium, including DMEM/F12, Neurobasal medium at 1:1, 0.5% N2, 0.1% B27, 0.1 mM ascorbic acid (Sigma Aldrich, USA), 1 × GlutaMax, and 1 × penicillin/streptomycin. 3 µM CHIR99021 (Wako), 2 µM DMH1 (Sigma Aldrich) and 2 µM SB431542 (Wako) were added in the medium. The culture medium was changed every other day. GM24468 maintained under this condition for 6 days were induced into neuroepithelial progenitors (NEPs). NEPs were then dissociated and split with dispase (Stemcell technologies) and neural medium containing 0.1 µM RA (Sigma Aldrich), 0.5 µM Purmorphamine (Pur) (Merck, USA), 1 µM CHIR99021, 2 µM DMH1 and 2 µM SB431542. The medium was changed every other day. NEPs maintained under this condition for 6 days differentiated into OLIG2^+ MNPs. The OLIG2^+ MNPs were expanded with the same medium containing 1 µM CHIR99021, 2 µM DMH1, 2 µM SB431542, 0.1 µM RA, and 0.5 µM Pur, and split once a week. To induce MNs differentiation, OLIG2^+ MNPs cultured in suspension in the above neural medium with 0.5 µM RA and 0.1 µM Pur. The medium was changed every other day. OLIG2^+ MNPs under this condition for 6 days differentiated into MNX1^+ MNs. […]

GALC = GALC enzymatic assay from Hs683 cells; conditions: 3 days
Protocol: GALC enzymatic activities were quantified as reported by Wiederschain et al.[47]. Hs683 cells were seeded at 1.5 × 10^5 cells/well in 6-well plate. Cells were treated with TEC-1 (0.1, 0.3, or 1 µM) or SMN-C3 (0.03, 0.1, 0.3, or 1 µM) for 3 days. Hs683 cells were washed with D-PBS (–), collected with ultra-pure water using a cell scraper, and homogenized with homogenizers (NS-4, NS310E, Micotechnition, Japan) for 10 s. Cell lysates were centrifuged at 600 × g for 10 min at 4 °C, followed by collection of supernatants. The concentration of protein of each sample was quantified with a BCA kit. The samples were adjusted to 1 µg protein/µL (total volume 20 µL) with ultra-pure water and then 80 µL of reaction buffer (0.25% taurocholate, 0.05% oleic acid and 0.1 mol/L citrate, pH 4.4) containing 80 µM 6-Hexadecanoylamino-4-methylumbelliferone b-D-galactopyranoside (HMU-Gal, Carbosynth, UK) was added. Stop buffer (0.2 mol/L Glycine solution with NaOH, pH 10.6) was mixed with an equal amount of ethanol. The mixture was reacted at 37 °C for 20 h. […] Signals were detected by reading the fluorescence emission at 450 nm with plate reader (Enspire, PerkinElmer) excited by 385 nm. The fluorescence intensity was corrected by the value of standard substrate of 6-hexadecanoylamino-4-methylumbelliferone (Cat. No. EH10520, Carbosynth).

FL-SMN2 mRNA = test: qPCR of FL-SMN2 transcripts in SMA type II fibroblasts (GM03813); conditions: 24 h, 50% total FL-SMN2 mRNA increase, normalized to GAPDH, 95% CI in brackets
Protocol: as §1, §2

| Structure (SMILES) | EC3.0× FOXM1a (FOXM1a) | Selectivity FOXM1b /FL-SMN2 (FOXM1b) | EC50 (FOXM1b) [nM] | SMN2 splicing in motor neurons (SMN2 splicing; similar effects to TEC-1) | GALC enzymatic activity compared to TEC-1 (GALC) | EC1.5× FL-SMN2 (FL-SMN2 mRNA) | concentration showing clear ability to modulate SMN2 splicing (SMN2 splicing) [nM] | GALC enzymatic activity (GALC; 3000 nM) |
| --- | --- | --- | --- | --- | --- | --- | --- | --- |
| CCN1CCC(c2cc(C)c3nc(-c4cc5c(C)nc(C)cn5n4)cc(=O)n3c2)CC1 [SMN-C3, reference compound] | 280.3 (211.4–377.7) nM | 8 | 945 | modulates SMN2 splicing | strongly decreased the activity of GALC | 122.1 (74.5–221.7) nM |  |  |
| Cc1cn2nc(-c3nc4ccc(N5CCN(C)CC5)cc4c(=O)[nH]3)cc2c(C)n1 [TEC-1, 2-(4,6-dimethylpyrazolo[1,5-a]pyrazin-2-yl)-6-(4-methylpiperazin-1-yl)quinazolin-4(3H)-one] | 1096.8 (809.7–1552.2) nM | > 61 | > 3000 |  |  | 49.1 (22.7–109.4) nM | 30 | slight decrease |
